According to US20240360165A1, “INHIBITORS OF CYCLIN DEPENDENT KINASE 7 (CDK7)” (Syros Pharmaceuticals, Inc., priority 2016, published 2024):
Read-outs that look alike come from different tables or passages of the source.

Tests used:
[1] = target: CDK7/Cyclin H/MAT1 complex (Homo sapiens, UniProt P50613); experiment: CDK7 inhibition assay (Caliper/LabChip EZ Reader kinase assay); assay type: biochemical; conditions: Table 1; CDK7/Cyclin H/MAT1 6 nM, ATP 2 mM, 35 min at 27° C.
How it was run: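 A Perkin Elmer Caliper/LabChip EZ Reader (Waltham, MA) platform served as the basis for this CDK7 kinase inhibition assay. The work was carried out by Biortus Biosciences, located in Jiangyin, Jiangsu Province, P.R. of China. Each CDK studied had its own kinase assay, and compounds were evaluated for their ability to block CDK7 activity.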

CDK9/Cyclin T1 complex = CDK9/Cyclin T1 complex (Homo sapiens, UniProt P50750); experiment: CDK9 inhibition assay (Caliper/LabChip EZ Reader kinase assay); assay type: biochemical; conditions: Table 1; CDK9/Cyclin T1 8 nM, ATP 2 mM, 15 min at 27° C.
How it was run: (§1)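 Activity read as fluorescent peptide conversion on a LabChip EZ Reader. For CDK2/Cyclin E1 (0.5 nM), substrate was 5-FAM-CDK7tide (2 μM) with 2 mM MgCl2; for CDK9/Cyclin T1 (8 nM), 5-FAM-CDK9tide (2 μM) with 10 mM MgCl2.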

A673 cells = experiment: Inhibition of proliferation of A673 cells (CyQUANT, 72 hour); assay type: cell-based, human; conditions: A673 cells, 72 hour, CyQUANT, read-out: Inhibition of Proliferation of A673 Cells (calculated IC50)
How it was run: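 Proliferation read-out by CyQUANT after a 72 h exposure, compounds spanning 4 μM–[…] in half-log steps. A673 cells cultured at 37° C under 5% CO2 in DMEM supplemented with 10% FBS plus 1 mM sodium pyruvate.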

[2] = target: T1, CDK12 (aa686-1082)/Cyclin K complex (Homo sapiens, UniProt Q9NYV4); experiment: CDK12 inhibition assay (Caliper/LabChip EZ Reader kinase assay); assay type: biochemical; conditions: Table 1; CDK12 (aa686-1082)/Cyclin K 50 nM, ATP 2 mM, 3 hr at 27° C.
T1 construct: CDK12 (aa686-1082)/Cyclin K complex

CDK2/Cyclin E1 complex = CDK2/Cyclin E1 complex (Homo sapiens, UniProt P24941); experiment: CDK2 inhibition assay (Caliper/LabChip EZ Reader kinase assay); assay type: biochemical; conditions: Table 1; CDK2/Cyclin E1 0.5 nM, ATP 2 mM, 35 min at 27° C.
How it was run: as §1

Chain of CDK9/Cyclin T1 complex (P50750 whole entry, species assumed): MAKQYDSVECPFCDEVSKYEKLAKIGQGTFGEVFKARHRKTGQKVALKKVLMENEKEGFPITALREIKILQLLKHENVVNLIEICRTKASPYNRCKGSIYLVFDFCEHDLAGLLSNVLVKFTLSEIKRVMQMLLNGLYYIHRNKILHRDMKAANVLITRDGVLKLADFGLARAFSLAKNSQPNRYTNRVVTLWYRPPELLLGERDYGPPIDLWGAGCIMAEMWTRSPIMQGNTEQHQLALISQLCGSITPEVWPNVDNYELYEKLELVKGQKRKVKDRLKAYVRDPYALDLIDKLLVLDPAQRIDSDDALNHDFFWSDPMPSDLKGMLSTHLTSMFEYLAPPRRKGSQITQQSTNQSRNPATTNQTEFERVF
Chain of CDK9/Cyclin T1 complex (O60563 whole entry partner, species assumed): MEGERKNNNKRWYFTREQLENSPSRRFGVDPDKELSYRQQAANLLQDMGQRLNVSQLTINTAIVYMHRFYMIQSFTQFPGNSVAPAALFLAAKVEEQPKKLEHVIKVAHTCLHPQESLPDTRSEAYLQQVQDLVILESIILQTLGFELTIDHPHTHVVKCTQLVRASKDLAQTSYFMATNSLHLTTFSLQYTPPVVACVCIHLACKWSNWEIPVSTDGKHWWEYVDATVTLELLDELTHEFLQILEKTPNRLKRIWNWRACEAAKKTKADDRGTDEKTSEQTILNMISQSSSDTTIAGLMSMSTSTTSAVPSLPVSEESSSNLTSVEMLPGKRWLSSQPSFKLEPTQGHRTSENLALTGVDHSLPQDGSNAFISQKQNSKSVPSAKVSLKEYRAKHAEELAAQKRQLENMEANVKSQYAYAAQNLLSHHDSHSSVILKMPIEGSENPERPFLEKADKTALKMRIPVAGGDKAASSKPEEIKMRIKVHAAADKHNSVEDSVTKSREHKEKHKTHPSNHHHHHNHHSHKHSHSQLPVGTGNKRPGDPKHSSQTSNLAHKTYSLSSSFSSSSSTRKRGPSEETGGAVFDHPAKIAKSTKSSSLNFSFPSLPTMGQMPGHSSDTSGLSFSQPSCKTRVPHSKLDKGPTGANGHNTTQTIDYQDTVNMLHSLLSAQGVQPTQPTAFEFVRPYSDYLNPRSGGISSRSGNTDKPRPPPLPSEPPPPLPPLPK
T1 sequence (Q9NYV4 686-1082, species assumed): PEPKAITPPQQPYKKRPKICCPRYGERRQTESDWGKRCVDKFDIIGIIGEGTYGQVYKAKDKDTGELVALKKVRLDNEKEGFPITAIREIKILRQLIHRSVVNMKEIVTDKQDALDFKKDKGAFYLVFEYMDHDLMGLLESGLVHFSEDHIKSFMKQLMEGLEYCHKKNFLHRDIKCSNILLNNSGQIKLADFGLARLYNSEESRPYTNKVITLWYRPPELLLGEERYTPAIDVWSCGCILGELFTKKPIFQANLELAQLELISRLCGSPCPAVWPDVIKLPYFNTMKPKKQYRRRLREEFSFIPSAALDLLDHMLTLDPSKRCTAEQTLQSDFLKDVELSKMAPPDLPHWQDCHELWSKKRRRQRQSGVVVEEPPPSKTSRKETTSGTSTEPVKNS
T1 sequence (O75909 whole entry partner, species assumed, the tested form may be a part): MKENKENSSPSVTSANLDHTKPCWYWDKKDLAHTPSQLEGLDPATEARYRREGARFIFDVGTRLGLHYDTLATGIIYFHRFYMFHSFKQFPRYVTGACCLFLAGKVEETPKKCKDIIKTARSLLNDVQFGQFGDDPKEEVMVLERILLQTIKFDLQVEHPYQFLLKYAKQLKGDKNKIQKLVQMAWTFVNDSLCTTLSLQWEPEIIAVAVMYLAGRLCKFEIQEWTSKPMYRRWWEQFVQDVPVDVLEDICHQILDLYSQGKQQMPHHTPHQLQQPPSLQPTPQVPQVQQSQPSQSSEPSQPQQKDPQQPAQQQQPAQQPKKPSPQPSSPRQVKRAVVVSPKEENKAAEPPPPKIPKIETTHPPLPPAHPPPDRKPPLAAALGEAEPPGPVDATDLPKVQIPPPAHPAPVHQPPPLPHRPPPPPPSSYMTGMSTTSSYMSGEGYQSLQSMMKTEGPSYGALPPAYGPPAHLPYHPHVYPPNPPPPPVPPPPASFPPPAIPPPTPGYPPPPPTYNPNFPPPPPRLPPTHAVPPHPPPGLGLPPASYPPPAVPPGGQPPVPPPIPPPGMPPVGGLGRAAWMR
Chain of CDK7/Cyclin H/MAT1 complex (P50613 whole entry, species assumed): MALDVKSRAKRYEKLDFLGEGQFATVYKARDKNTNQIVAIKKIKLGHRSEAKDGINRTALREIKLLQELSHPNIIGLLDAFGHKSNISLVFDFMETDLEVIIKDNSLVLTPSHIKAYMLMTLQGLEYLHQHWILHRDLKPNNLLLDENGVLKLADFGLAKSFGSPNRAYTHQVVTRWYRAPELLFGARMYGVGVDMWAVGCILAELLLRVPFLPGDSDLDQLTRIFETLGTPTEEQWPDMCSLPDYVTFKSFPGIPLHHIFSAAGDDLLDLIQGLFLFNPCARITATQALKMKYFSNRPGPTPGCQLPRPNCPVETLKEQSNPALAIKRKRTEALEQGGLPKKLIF
Chain of CDK7/Cyclin H/MAT1 complex (P51946 whole entry partner, species assumed): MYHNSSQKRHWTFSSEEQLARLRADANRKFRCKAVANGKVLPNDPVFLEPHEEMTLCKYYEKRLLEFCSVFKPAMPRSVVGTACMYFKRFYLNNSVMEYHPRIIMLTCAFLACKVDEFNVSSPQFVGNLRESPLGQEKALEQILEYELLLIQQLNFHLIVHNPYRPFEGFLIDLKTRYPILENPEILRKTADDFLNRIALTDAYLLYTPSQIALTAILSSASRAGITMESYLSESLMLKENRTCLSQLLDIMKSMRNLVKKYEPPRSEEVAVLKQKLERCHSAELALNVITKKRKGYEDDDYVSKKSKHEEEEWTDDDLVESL
Chain of CDK7/Cyclin H/MAT1 complex (P51948 whole entry partner, species assumed): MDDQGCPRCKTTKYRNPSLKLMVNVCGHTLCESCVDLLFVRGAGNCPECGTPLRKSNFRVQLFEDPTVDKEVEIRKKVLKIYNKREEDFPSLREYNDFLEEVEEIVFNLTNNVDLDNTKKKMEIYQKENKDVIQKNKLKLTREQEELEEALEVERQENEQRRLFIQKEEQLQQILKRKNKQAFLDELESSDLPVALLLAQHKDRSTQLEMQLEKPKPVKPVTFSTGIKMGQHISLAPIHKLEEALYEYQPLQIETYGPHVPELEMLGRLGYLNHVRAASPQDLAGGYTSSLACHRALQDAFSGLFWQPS

Row | SMILES | IC50 [1] | IC50 (CDK9/Cyclin T1 complex) | IC50 [2] | IC50 (CDK2/Cyclin E1 complex) | IC50 (A673 cells; Homo sapiens, A673, 72 h) | IC50 (A673 cells)
1 | Cc1c(-c2ccc3c(-c4nc(N[C@H]5CCCNC5)ncc4C(F)(F)F)c[nH]c3c2)cnn1C [Compound 227, 4-[6-(1,5-dimethylpyrazol-4-yl)-1H-indol-3-yl]-N-[(3S)-3-piperidyl]-5-(trifluoromethyl) pyrimidin-2-amine] | < 20 nM | 200 to 5000 nM | 200 to 5000 nM | 200 to 5000 nM | 20 to 200 nM | –
2 | O[C@H]1CC[C@@H](c2cccc3c(-c4nc(N[C@H]5CCCNC5)ncc4C(F)(F)F)c[nH]c32)CC1 [Compound 207] | < 20 nM | 200 to 5000 nM | 200 to 5000 nM | 200 to 5000 nM | < 20 nM | –
3 | Clc1cnc(N[C@H]2CN3CCC2CC3)nc1-c1c[nH]c2ccccc12 [Compound 134] | > 5000 nM | > 5000 nM | > 5000 nM | > 5000 nM | – | 200 to 5000 nM
4 | OC1CC=C(c2cccc3c(-c4nc(N[C@H]5CCCNC5)ncc4C(F)(F)F)c[nH]c23)CC1 (some centres unmarked) [Compound 198] | < 20 nM | 200 to 5000 nM | 200 to 5000 nM | 200 to 5000 nM | – | < 20 nM
5 | CC1(C)CCNC[C@H]1Nc1ncc(C(F)(F)F)c(-c2c[nH]c3ccccc23)n1 (single isomer, unassigned) [Compound 210] | 200 to 5000 nM | > 5000 nM | > 5000 nM | > 5000 nM | 200 to 5000 nM | –
6 | C#Cc1cnc(N[C@H]2CCCNC2)nc1-c1c[nH]c2ccccc12 [Compound 194] | < 20 nM | 200 to 5000 nM | 200 to 5000 nM | 200 to 5000 nM | < 20 nM | –
7 | C[C@H]1CNC[C@@H](Nc2ncc(Cl)c(-c3c[nH]c4ccccc34)n2)C1 [Compound 201, 5-chloro-4-(1H-indol-3-yl)-N-[(3S,5R)-5-methyl-3-piperidyl]pyrimidin-2-amine] | < 20 nM | 200 to 5000 nM | 20 to 200 nM | 200 to 5000 nM | < 20 nM | –
8 | FC(F)(F)c1cnc(N[C@H]2CCC3(CC3)NC2)nc1-c1c[nH]c2ccccc12 [Compound 212] | < 20 nM | 200 to 5000 nM | 200 to 5000 nM | 200 to 5000 nM | < 20 nM | –
9 | N#Cc1cnc(N[C@H]2CCCNC2)nc1-c1c[nH]c2ccccc12 [Compound 157] | < 20 nM | 200 to 5000 nM | 200 to 5000 nM | 200 to 5000 nM | < 20 nM | –

More lines, main results first:

Row | IC50 [1] | IC50 (CDK9/Cyclin T1 complex) | IC50 [2] | IC50 (CDK2/Cyclin E1 complex) | SMILES | IC50 (A673 cells; Homo sapiens, A673, 72 h) | IC50 (A673 cells)
10 | 20 to 200 nM | > 5000 nM | > 5000 nM | > 5000 nM | CC(C)c1cnc(N[C@H]2CCCNC2)nc1-c1n[nH]c2nc(C#N)ccc12 [Compound 276, (S)-3-(5-isopropyl-2-(piperidin-3-ylamino)pyrimidin-4-yl)-1H-pyrazolo[3,4-b]pyridine-6-carbonitrile] | 200 to 5000 nM | –
11 | < 20 nM | 200 to 5000 nM | 200 to 5000 nM | 200 to 5000 nM | N#Cc1ccc2c(-c3nc(N[C@H]4CCCNC4)ncc3C(F)(F)F)c[nH]c2c1C#N [Compound 258, 3-[2-[[(3S)-3-piperidyl]amino]-5-(trifluoromethyl)pyrimidin-4-yl]-1H-indole-6,7-dicarbonitrile] | 20 to 200 nM | –
12 | 200 to 5000 nM | > 5000 nM | > 5000 nM | > 5000 nM | CC(O)c1cnc(NC2CCCNC2)nc1-c1c[nH]c2ccccc12 (single isomer, unassigned) [Compound 239] | – | 200 to 5000 nM
13 | < 20 nM | 200 to 5000 nM | 200 to 5000 nM | 200 to 5000 nM | Cc1n[nH]cc1-c1ccc2c(-c3nc(N[C@H]4CCCNC4)ncc3C(F)(F)F)c[nH]c2c1 [Compound 229, 4-[6-(3-methyl-1H-pyrazol-4-yl)-1H-indol-3-yl]-N-[(3S)-3-piperidyl]-5-(trifluoromethyl) pyrimidin-2-amine] | < 20 nM | –
